Experimental data taken from patent publication US20240148671A1, “METHODS FOR IMPROVING POULTRY HEALTH” (CORNELL UNIVERSITY, priority 2021, published 2024).
“Also recorded” adds a separate entry of the source. Like-named read-outs stand apart in the source and are kept apart here. Marks after values point to notes of the source that are not given here.

Legend:
hemoglobin (Hb) = test: Blood hemoglobin (Hb) after intra-amniotic administration; format: in vivo, Gallus gallus; settings: intra-amniotic 1 mL/egg on day 17; blood at hatch (day 21); mean ± SEM
Procedure: (§1) The pure resveratrol and pterostilbene were individually diluted in 18 MΩ H2O. The intra-amniotic administration followed the methodology previously described. On the 17th day of embryonic development, the eggs with viable embryos (n=60) were randomly allocated into 6 groups (n=10) with a similar weight frequency distribution. For the intra-amniotic treatment, 1 mL of solution per egg was injected into the amniotic fluid (via candling) with the aid of a 21-gauge needle. After the procedure, the injection sites were sealed with cellophane tape, and the eggs were distributed into six groups: (1) no injection; (2) 18 MΩ H2O; (3) 5% inulin; (4) 5% resveratrol; (5) 5% pterostilbene; and (6) synergistic: 4.75% resveratrol and 0.25% pterostilbene. […] The eggs were equally distributed in each incubator location to reduce possible allocation bias. Upon hatching (21 days), the hatchlings were euthanized by CO2 exposure, and the blood, liver, heart, pectoral muscle, small intestine and cecum were obtained.
Blood was collected using micro-hematocrit heparin-coated capillary tubes (Fisher Scientific, Waltham, MA, USA). The hemoglobin (Hb) concentration was assessed spectrophotometrically using the QuantiChrom™ Hb Assay (DIHB-250, BioAssay Systems, Hayward, CA, USA) and according to specific instructions.

[1] = Fe and Zn content in the serum and liver samples; format: in vivo, Gallus gallus; settings: intra-amniotic 1 mL/egg on day 17, at hatch, mean ± SEM, n=8
Procedure: as §1
The serum (50 μL) and liver (0.5 g) samples were mixed with 3.0 mL of a 60:40 (v/v) solution of nitric acid (HNO3) and perchloric acid (HClO4) and incubated overnight. After this, the samples were heated for 2 hours at 120° C. and added to 0.25 mL of 40 μg/g yttrium (internal standard), and the block temperature was increased to 145° C. for 2 h and then 190° C. for 10 min. At the end of these procedures, the samples were cooled, diluted to a total volume of 20 mL, mixed and transferred into autosampler tubes for analysis (inductively coupled plasma atomic emission spectrometer) (Thermo, Franklin, MA, USA).

[2] = Body weight, cecum weight and cecum:body weight ratio; format: in vivo, Gallus gallus; settings: intra-amniotic 1 mL/egg on day 17; at hatch (day 21); mean ± SEM, n=8
Procedure: as §1

[3] = Glycogen in pectoral muscle; format: in vivo, Gallus gallus; settings: intra-amniotic 1 mL/egg on day 17, at hatch, mean ± SEM, n=8
Procedure: as §1

Liver Ferritin = test: Liver ferritin; format: in vivo, Gallus gallus; settings: intra-amniotic 1 mL/egg on day 17, at hatch, mean ± SEM, n=5
Procedure: as §1

[4] = tested on: duodenal tissue (villi, crypts, goblet cells); test: Morphometric examination of duodenal tissue; format: in vivo, Gallus gallus; settings: intra-amniotic 1 mL/egg on day 17, at hatch, mean ± SEM, n=5; for Depth of Crypts (μm) / Mucus Layer Width (μm) / Villus Diameter (μm) / Villus Length (μm): duodenum; for Crypt Goblet Cell Number / Goblet Cell Diameter (μM) / Villus Goblet Cell Type Number, Acidic / Villus Goblet Cell Type Number, Mixed / Villus Goblet Cell Type Number, Neutral: small intestine
Procedure: as §1
Villus epithelium analysis was conducted as previously published. The duodenal samples were soaked in buffered formaldehyde (4% (v/v)), dehydrated, cleared and embedded in paraffin. Numerous sections were cut with a thickness of 5 μm and put on slides. The sections were deparaffinized in xylene, after which they were rehydrated in a series of graded alcohol. Finally, the slides were stained with Alcian Blue-periodic acid-Schiff and investigated under a light microscopy. The variables were assessed (light microscope, EPIX XCAP software, standard version, Olympus, Waltham, MA, USA) for the following: villus length, villus diameter, depth of crypts, goblet cell diameter, crypt goblet cell number and villus goblet cells type number (acidic, neutral or mixed). Four segments for each biological sample and five biological samples per treatment group were examined. The goblet cells were enumerated at 10 villi/sample, and the means were calculated for statistical analysis.

[5] = absorption in the gut lumen, literature refs 11, 12 (Kapetanovic et al.; Walle), cited from earlier work
cecal microbiome = test: 16S rRNA gene sequencing of the cecal microbiota; format: in vivo, Gallus gallus; settings: cecal content at hatch, n=5; 5% inulin vs all other experimental groups (p<0.01); 5% pterostilbene vs 18 MΩ H2O control (p<0.05); stilbene groups among each other
Procedure: as §1
As was formerly described, cecal samples were used to extract microbial genomic DNA (PowerSoil DNA isolation kit, MoBio Laboratories Ltd., Carlsbad, CA, USA). […] The PCR products were purified (Beckman Coulter, Atlanta, GA, USA) and quantified (Quant-iT PicoGreen dsDNA quantitation kit, Invitrogen, Carlsbad, CA, USA). […]
The 16S rRNA gene sequence analysis was performed using QIIME2 as previously described. The sequence reads were demultiplexed by per-sample barcodes, and the Divisive Amplicon Denoising Algorithm (DADA2) was used to correct the Illumina-sequenced amplicon read errors. […] The alpha and β diversity were calculated from samples containing at least 9.800 sequences. The alpha diversity parameter, a measure of the richness of the bacterial community, was calculated using the Shannon Index, and the beta diversity was assessed by a Jaccard similarity distance matrix. […]
The values in this paper were expressed as means and standard errors of the means (SEM). […] The results were analyzed by Analysis of Variance (ANOVA). […]

Compound | Hb (g/dL) (hemoglobin (Hb)) | Liver Iron (μg/g) [1] | Liver Zinc (μg/g) [1] | Serum Iron (μg/g) [1] | Serum Zinc (μg/g) [1] | Body Weight Average (g) [2] | Cecum Weight Average (g) [2] | Cecum:Body Weight Ratio [2] | Glycogen (mg/g) [3] | Liver Ferritin (A.U.) (Liver Ferritin) | Depth of Crypts (μm) [4] | Mucus Layer Width (μm) [4] | Villus Diameter (μm) [4] | Villus Length (μm) [4] | Crypt Goblet Cell Number [4] | Goblet Cell Diameter (μM) [4] | Villus Goblet Cell Type Number, Acidic [4] | Villus Goblet Cell Type Number, Mixed [4] | Villus Goblet Cell Type Number, Neutral [4] | also measured
COc1cc(/C=C/c2ccc(O)cc2)cc(OC)c1 [5% Pterostilbene, Pterostilbene] | 8.95 ± 0.77^a g/dL | 37.43 ± 1.52 ^ab μg/g | 14.43 ± 0.49 ^b μg/g | 2.94 ± 0.44 ^b μg/g | 1.33 ± 0.20 ^a μg/g | 46.7 ± 0.7^a g | 0.6 ± 0.1^a g | 0.013 ± 0.001^a | 0.033 ± 0.010^a mg/g | 1.011 ± 0.351^bc A.U. | 66.41 ± 1.19^a μm | 3.76 ± 0.10^e μm | 81.33 ± 4.95^a μm | 451.58 ± 11.21^b μm | 10.04 ± 0.18 ^c | 7.81 ± 0.07 ^b μM | 10.78 ± 0.22 ^ab | 0.28 ± 0.05 ^b | 0.00 ± 0.00 ^b | bioavailability [5]: 80%; bioavailability ([5]; listed as pterostilbenes): about 80%
inulin [5% Inulin, reference compound] | 8.86 ± 0.69^a g/dL | 48.96 ± 4.39 ^a μg/g | 18.23 ± 0.88 ^ab μg/g | 2.76 ± 0.33 ^b μg/g | 0.97 ± 0.08 ^bc μg/g | 49.7 ± 0.9^a g | 0.6 ± 0.1^a g | 0.012 ± 0.001^a | 0.029 ± 0.005^a mg/g | 0.148 ± 0.005^c A.U. | 51.30 ± 1.07^b μm | 5.27 ± 0.13^c μm | 44.57 ± 0.79^d μm | 262.54 ± 3.76^d μm | 12.27 ± 0.33 ^a | 7.12 ± 0.06 ^d μM | 10.65 ± 0.25 ^ab | 0.02 ± 0.01 ^e | 0.00 ± 0.00 ^b | β diversity of the cecal microbiome (Jaccard distances), comparison between groups (cecal microbiome): statistical differences; also recorded: differed
